Data set [1] deals with LPS-induced proinflammatory factor nitric oxide (NO) in immunocompetent BV-2 cells. Put plainly: NO assay: inhibition of LPS-induced NO overproduction in BV-2 cells. In kind it is cell-based. The conditions noted are these: Mus musculus; BV-2 cells, LPS 200 ng/mL, 24 h; read-out: Antineuroinflammatory activity (IC50 inhibiting LPS-induced NO). The method, then:
BV-2 cells were seeded at a density of 5×10^4 cells per milliliter in 96-well plates. After 24 h incubation, the media was removed and changed to DMEM without FBS and penicillin-streptomycin. LPS (200 ng/mL) and different concentrations of compounds were added. After 24 h treatment, 100 μL of media was transferred to flat black 96-well micro fluor plates, and then, 10 μL of 0.05 mg/mL 2,3-diaminonaphthalene was added and incubated in the dark for 15 min. 5 μL of NaOH (3 M) was subsequently added to each well to quench the reaction. NO inhibition ratio was analyzed by a SYNERGY H1 Microplate Reader (BioTek Instruments, Carlsbad, CA, USA) with excitation at 360 nm and emission at 430 nm. The fluorescence value of the LPS-treated group was set as 100%.

In data set [2] the test system is IL-1β in mPFC, NAc and VTA. The data set can be described thus: IL-1β expression in brain regions after chronic morphine. In kind it is in vivo. To be noted: mice. How it is done:
Total RNA was extracted from cells or mouse brains using the RNeasy Mini Kit. Isolated RNA was reverse-transcribed into cDNA using an RT2 Easy First Strand cDNA Synthesis Kit following the manufacturer's protocols. PCR amplification was conducted using synthetic primers, SYBR Green, and a TOptical Real-Time qPCR Thermal Cycler (Analytik Jena, Thuringia, Germany). The data were analyzed by the […] method, and Rpl711 or Rpl27 was used as an internal control.
Conditional place conditioning (CPP) was conducted using the classic 10-consecutive-day procedure. On days 1 and 2, each mouse was separately placed into the CPP apparatus for 15 min to habituate the apparatus. On day 3 (preconditioning), the time spent in each compartment was recorded to determine any preference for the two compartments. Mice were divided into three groups: vehicle group, 7.5 mg/kg morphine, as well as 7.5 mg/kg morphine+0.2 mg/kg CIAC001. During the conditioning phase, mice were separately isolated in the compartment for 30 min on 6 consecutive days. Mice were given morphine on days 4, 6, and 8, and vehicle (5 mL/kg) was administered on days 5, 7, and 9. […] Each mouse was placed in the apparatus and explored freely, and the time spent in each compartment was recorded for 15 min. The CPP score(s) was calculated using the time spent in the drug-paired compartment minus the time spent in the vehicle-paired compartment.

The test system of data set [3] is microglial activation marker Iba1. Put plainly: Iba1 immunofluorescence staining of brain sections. In kind it is in vivo, mice. To be noted: chronic morphine. The method, then:
Mice were anesthetized with tribromoethanol following the CPP assay and intracardially perfused with 8 mL saline; the brains were then stripped out and embedded in paraffin. The brain was sectioned coronally at 5 μm thickness on a vibrating microtome. Paraffin-processed tissues were deparaffinized in xylene and rehydrated with a graded alcohol solution. The sections were placed in 0.01 M citrate buffer (pH 6.0) and heated in a microwave oven for hot antigen repair. These sections were incubated with goat serum for 20 min at 37° C. and then with rabbit anti-Iba1 monoclonal antibody at 4° C. overnight. After three washes with PBS, the sections were incubated with an Alexa-488-conjugated secondary antibody for 1 h in the dark. Ultimately, followed by three washes with PBS twice for 5 min each, the sections were counterstained with DAPI and examined under a confocal microscope

Data set [4] in a line: Pharmacokinetic profiles in brain and plasma after oral administration. Format: in vivo, mice. How it is done: Following administration, mice (BALB/c, male, 20-25 g) were sacrificed at 0.5, 1, 2, 3, and 4 h. The blood and brain tissue were collected and extracted with acetonitrile.
Data set [5] can be described thus: Body weight during 7 days of administration. In kind it is in vivo, mice. To be noted: during drug treatment vs vehicle. How it is done: Mice were intraperitoneally injected with 20 mg/kg CIAC001 or 10 mg/kg THC once daily. After 1 h, the mice were anesthetized with isoflurane by a small animal anesthesia machine (R500IE, RWD Life Science Co) on day 2 and day 5. The respiratory rate of mice was recorded three times within 20 s. The weights of mice were recorded every day.

A short description of data set [6]: Pharmacokinetic profiles in brain and plasma after oral administration. The conditions noted are these: male, BALB/c, mouse, 10 mg/kg p.o., read-out: B/P ratio. In kind it is in vivo, mice.

Results on one compound are retold here after patent US20260242320A1, “USE OF CANNABIDIOL DERIVATIVE IN PREPARATION OF MEDICAMENT” (priority 2023, published 2026).

In the case of `C=C(C)[C@@H]1CCC(C)=C[C@H]1c1c(O)cc(C(C)n2nccn2)cc1O` (stereo partly drawn) [CIAC001, (1′R,2′R)-4-(1-(2H-1,2,3-Triazol-2-yl)ethyl)-5′-methyl-2′-(prop-1-en-2-yl)-1′,2′,3′,4′-tetrahydro-[1,1′-biphenyl]-2,6-diol], the IC50 in data set [1] amounted to 2.5 ± 0.7 µM. The “morphine-induced IL-1β overexpression in mPFC, NAc and VTA” value in data set [2] is reported as “inhibited”. Moreover, the “expression of Iba1 in the mPFC” value in data set [3] is listed as “decreased the expression of Iba1”. Also, in data set [4] (brain, 10 mg/kg p.o., mice), the AUC0→t was found to be 172.8 ng·h/g, the “AUC0→∞” value turned out to be 191.3 ng·h/g, the MRT is 54 min and the “brain Cmax” value turned out to be 175.0 ng/g. This compound also showed a t1/2 in data set [4] (brain, 10 mg/kg p.o., mice) of 48 min. Further, the Kp in data set [4] (male, BALB/c, mouse, brain / plasma, oral, 10 mg/kg p.o., read-out: B/P ratios within the first 3 h after administration) is over 2. The Kp at 0.5 h in data set [4] (male, BALB/c, mouse, brain / plasma, po, 0.5 h, 10 mg/kg p.o., read-out: B/P ratio) came to 3.31 ± 0.382. In data set [4] (male, BALB/c, mouse, brain / plasma, po, 1 h, 10 mg/kg p.o., read-out: B/P ratio), the Kp at 1 h came to 3.63 ± 0.425. Further, the Kp at 2 h in data set [4] (male, BALB/c, mouse, brain / plasma, po, 2 h, 10 mg/kg p.o., read-out: B/P ratio) was found to be 4.12 ± 1.44. In data set [4] (male, BALB/c, mouse, brain / plasma, po, 3 h, 10 mg/kg p.o., read-out: B/P ratio), the Kp at 3 h was 5.76 ± 1.34. The Tmax in data set [4] (male, BALB/c, mouse, po, brain, 10 mg/kg p.o., mice, read-out: Tmax) was 18 min. Besides, the “BBB permeability and CNS pharmacokinetics compared to CBD” value in data set [4] (oral administration) was “better BBB permeability and CNS pharmacokinetics”. The “brain Cmax relative to CBD” value in data set [4] (vs CBD, 10 mg/kg p.o.) was “approximately 2 times”. The body weights entry in data set [5] is given as “did not change”. The Kp at 0.083 h in data set [6] (0.083 h) came out at 2.07 ± 0.907. In addition, the Kp at 0.25 h in data set [6] (0.25 h) was 2.78 ± 0.389.
